Results as given in patent publication US20220110985A1, “NUTRITIONAL COMPOSITION COMPRISING 2'FUCOSYLLACTOSE AND 3'GALACTOSYLLACTOSE” (N.V. Nutricia, priority 2019, published 2022).

System: infant intestinal microbiota
Assay: quad-SHIME infant intestinal microbiota model (SCFA, glycoprofile)
Type: cell-based, human infant faecal inoculum
Set-up: Butyrate (Mean ± SD) / Iso-Butyrate (Mean ± SD) / Acetate (Mean ± SD): unit not given here
Conditions: distal colon
Description: A faecal sample from a healthy infant born via C-section, exclusively breastfed with no history of antibiotic usage, was used as inoculum to simulate the infant intestinal microbiota in the colon compartments of a quad-SHIME®—a dynamic model of the human gastrointestinal tract comprises 4 SHIME® units running in parallel and each SHIME® unit is composed of 3 reactors simulating the stomach and small intestine, proximal and distal colons.

Structure (SMILES): C[C@@H]1O[C@@H](O[C@H]2[C@H](O[C@H]3[C@H](O)[C@@H](O)C(O)O[C@@H]3CO)O[C@H](CO)[C@H](O)[C@@H]2O)[C@@H](O)[C@H](O)[C@@H]1O (stereo partly drawn) [2′-FL, α-L-Fuc-(1→2)-β-D-Gal-(1→4)-D-Glc]
- Acetate (Mean ± SD) (D1-D3): 38.67 ± 10.25
- Butyrate (Mean ± SD) (D1-D3): 0 ± 0
- Iso-Butyrate (Mean ± SD) (D1-D3): 0 ± 0
- Propionate (Mean ± SD) (D1-D3): 10.17 ± 3.01
- Acetate (Mean ± SD) (D4-D11): 26.22 ± 0.97
- Butyrate (Mean ± SD) (D4-D11): 0.74 ± 0.49
- Iso-Butyrate (Mean ± SD) (D4-D11): 0.68 ± 0.75
- Propionate (Mean ± SD) (D4-D11): 6.58 ± 0.49
- Acetate (Mean ± SD) (D12-D15): 22.96 ± 1.04
- Butyrate (Mean ± SD) (D12-D15): 0.99 ± 0.09
- Iso-Butyrate (Mean ± SD) (D12-D15): 0.93 ± 0.21
- Propionate (Mean ± SD) (D12-D15): 6.13 ± 0.63
- butyrate generation, in words (relative to control and scGOS/lcFOS groups): generated earlier in the distal colon and at a higher concentration
